From patent publication US20250098679A1, “HERBICIDAL PYRIDONE DERIVATIVES” (SYNGENTA CROP PROTECTION AG, priority 2021, published 2025)

Columns and labels:
Assay type in all cases: in vivo
Settings in all cases: evaluated after 13 days
[1] = system: Ipomoea hederacea (IPOHE); test: Pre-emergence Test, Ipomoea hederacea (IPOHE)
[2] = system: Amaranthus retoflexus (AMARE); test: Pre-emergence Test, Amaranthus retoflexus (AMARE)
[3] = system: Setaria faberi (SETFA); test: Pre-emergence Test, Setaria faberi (SETFA)
[4] = system: Amaranthus palmeri (AMAPA); test: Post-emergence Test, Amaranthus palmeri (AMAPA); parameters: key: 5=81-100%, 4=61-80%, 3=41-60%, 2=21-40%, 1=0-20% damage
Summary of the method: (§1)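 Application was a spray of acetone/water (50:50) with 0.5% Tween 20 onto pots of test species sown in standard soil. Unless otherwise stated, the rate was 1000 g/ha. After 13 days under glasshouse conditions (24/16 °C, 65% humidity), injury was scored from 1 (0-20%) to 5 (81-100%).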

[5] = system: Amaranthus retoflexus (AMARE); test: Post-emergence Test, Amaranthus retoflexus (AMARE); parameters: key to percentage damage caused to the plant, AMARE (five-point scale): 5=81-100%, 4=61-80%, 3=41-60%, 2=21-40%, 1=0-20% damage
Summary of the method: as §1

[6] = system: Amaranthus palmeri (AMAPA); test: Pre-emergence Test, Amaranthus palmeri (AMAPA)
[7] = system: Zea mays (ZEAMX); test: Pre-emergence Test, Zea mays (ZEAMX)
[8] = system: Echinochloa crus-galli (ECHCG); test: Post-emergence Test, Echinochloa crus-galli (ECHCG); parameters: key to percentage damage caused to the plant, ECHCG (five-point scale): 5=81-100%, 4=61-80%, 3=41-60%, 2=21-40%, 1=0-20% damage
Summary of the method: as §1

[9] = system: Ipomoea hederacea (IPOHE); test: Post-emergence Test, Ipomoea hederacea (IPOHE); parameters: key to percentage damage caused to the plant, IPOHE (five-point scale): 5=81-100%, 4=61-80%, 3=41-60%, 2=21-40%, 1=0-20% damage
Summary of the method: as §1

[10] = system: Echinochloa crus-galli (ECHCG); test: Pre-emergence Test, Echinochloa crus-galli (ECHCG)
[11] = system: Setaria faberi (SETFA); test: Post-emergence Test, Setaria faberi (SETFA); parameters: key to percentage damage caused to the plant, SETFA (five-point scale): 5=81-100%, 4=61-80%, 3=41-60%, 2=21-40%, 1=0-20% damage
Summary of the method: as §1

[12] = system: Zea mays (ZEAMX); test: Post-emergence Test, Zea mays (ZEAMX); parameters: key to percentage damage caused to the plant, ZEAMX (five-point scale): 5=81-100%, 4=61-80%, 3=41-60%, 2=21-40%, 1=0-20% damage
Summary of the method: as §1

Structure (SMILES) | Pre-emergence Test IPOHE, percentage damage caused to the plant (five-point scale) ([1]; 1000 g/ha) | Pre-emergence Test AMARE, percentage damage caused to the plant (five-point scale) ([2]; 1000 g/ha) | Pre-emergence Test SETFA, percentage damage caused to the plant (five-point scale) ([3]; 1000 g/ha) | percentage damage caused to the plant, AMAPA (five-point scale) ([4]; 250 g/Ha) | percentage damage caused to the plant, AMARE (five-point scale) ([5]; 250 g/Ha) | percentage damage caused to the plant, AMARE (five-point scale) ([5]; 1000 g/ha) | Pre-emergence Test AMAPA, percentage damage caused to the plant (five-point scale) ([6]; 1000 g/ha) | Pre-emergence Test ZEAMX, percentage damage caused to the plant (five-point scale) ([7]; 1000 g/ha) | percentage damage caused to the plant, ECHCG (five-point scale) ([8]; 250 g/Ha) | percentage damage caused to the plant, ECHCG (five-point scale) ([8]; 1000 g/ha) | percentage damage caused to the plant, IPOHE (five-point scale) ([9]; 250 g/Ha) | percentage damage caused to the plant, IPOHE (five-point scale) ([9]; 1000 g/ha) | Pre-emergence Test ECHCG, percentage damage caused to the plant (five-point scale) ([10]; 1000 g/ha) | percentage damage caused to the plant, SETFA (five-point scale) ([11]; 250 g/Ha) | percentage damage caused to the plant, SETFA (five-point scale) ([11]; 1000 g/ha) | percentage damage caused to the plant, ZEAMX (five-point scale) ([12]; 250 g/Ha) | percentage damage caused to the plant, ZEAMX (five-point scale) ([12]; 1000 g/ha) | percentage damage caused to the plant, AMAPA (five-point scale) ([4]; 1000 g/ha) | other results
CCn1c(Cn2nccc2C#N)cc(=O)c(C(=O)O)c1-c1ccc(Cl)c(Cl)c1 [Compound 176, 6-[(5-cyanopyrazol-1-yl)methyl]-2-(3,4-dichlorophenyl)-1-ethyl-4-oxo-pyridine-3-carboxylic acid] | 1 (1=0-20%) | 0 | 4 (4=61-80%) | 0 | 0 | 3 (3=41-60%) | 2 (2=21-40%) | 0 | 2 (2=21-40%) | 4 (4=61-80%) | 2 (2=21-40%) | 3 (3=41-60%) | 4 (4=61-80%) | 2 (2=21-40%) | 4 (4=61-80%) | 0 | 1 (1=0-20%) | – | Pre-emergence Test IPOHE, percentage damage caused to the plant (five-point scale) ([1]; 250 g/Ha (*)): 0; Pre-emergence Test AMARE, percentage damage caused to the plant (five-point scale) ([2]; 250 g/Ha (*)): 0; Pre-emergence Test SETFA, percentage damage caused to the plant (five-point scale) ([3]; 250 g/Ha (*)): 4 (4=61-80%); Pre-emergence Test AMAPA, percentage damage caused to the plant (five-point scale) ([6]; 250 g/Ha (*)): 1 (1=0-20%); Pre-emergence Test ZEAMX, percentage damage caused to the plant (five-point scale) ([7]; 250 g/Ha (*)): 0; Pre-emergence Test ECHCG, percentage damage caused to the plant (five-point scale) ([10]; 250 g/Ha (*)): 2 (2=21-40%)
CCn1c(Cn2cc(C)c(C(F)(F)F)n2)cc(=O)c(C(=O)O)c1-c1ccc(Cl)c(Cl)c1 [Compound 96, 2-(3,4-dichlorophenyl)-1-ethyl-6-[[4-methyl-3-(trifluoromethyl)pyrazol-1-yl]methyl]-4-oxo-pyridine-3-carboxylic acid] | 1 (1=0-20%) | 1 (1=0-20%) | 3 (3=41-60%) | 0 | 0 | 1 (1=0-20%) | 1 (1=0-20%) | 0 | 2 (2=21-40%) | 2 (2=21-40%) | 0 | 0 | 3 (3=41-60%) | 0 | 3 (3=41-60%) | 0 | 4 (4=61-80%) | 0 | –
CCn1c(Cn2ccc(OC(F)F)n2)cc(=O)c(C(=O)O)c1-c1ccc(Cl)c(Cl)c1 [Compound 37, 2-(3,4-dichlorophenyl)-6-[[3-(difluoromethoxy)pyrazol-1-yl]methyl]-1-ethyl-4-oxo-pyridine-3-carboxylic acid] | 4 (4=61-80%) | 1 (1=0-20%) | 5 (5=81-100%) | 2 (2=21-40%) | 2 (2=21-40%) | 1 (1=0-20%) | 2 (2=21-40%) | 5 (5=81-100%) | 4 (4=61-80%) | 4 (4=61-80%) | 4 (4=61-80%) | 2 (2=21-40%) | 5 (5=81-100%) | 4 (4=61-80%) | 5 (5=81-100%) | 1 (1=0-20%) | 4 (4=61-80%) | 4 (4=61-80%) | –
CCn1c(Cn2cc3c(n2)CCCC3)cc(=O)c(C(=O)O)c1-c1ccc(Cl)c(Cl)c1 [Compound 101, 2-(3,4-dichlorophenyl)-1-ethyl-4-oxo-6-(4,5,6,7-tetrahydroindazol-2-ylmethyl)pyridine-3-carboxylic acid] | 2 (2=21-40%) | 1 (1=0-20%) | 1 (1=0-20%) | 0 | 0 | 0 | 2 (2=21-40%) | 1 (1=0-20%) | 1 (1=0-20%) | 0 | 0 | 3 (3=41-60%) | 0 | 0 | 0 | 0 | 0 | 0 | –
CCn1c(Cn2ccc(SC)n2)cc(=O)c(C(=O)O)c1-c1ccc(Cl)c(Cl)c1 [Compound 35, 2-(3,4-dichlorophenyl)-1-ethyl-6-[(3-methylsulfanylpyrazol-1-yl)methyl]-4-oxo-pyridine-3-carboxylic acid] | 4 (4=61-80%) | 1 (1=0-20%) | 4 (4=61-80%) | 1 (1=0-20%) | – | 3 (3=41-60%) | 2 (2=21-40%) | 5 (5=81-100%) | 3 (3=41-60%) | 4 (4=61-80%) | 4 (4=61-80%) | 2 (2=21-40%) | 5 (5=81-100%) | 4 (4=61-80%) | 4 (4=61-80%) | 2 (2=21-40%) | 3 (3=41-60%) | 1 (1=0-20%) | –
